Consider 30 compounds from patent US20230167073A1 (Teijin Pharma Limited, priority 2020, published 2023).

This assay concerns the target T1, Human TRPC6 (Homo sapiens, UniProt Q9Y210).
T1 construct: expressed in transfected cells
T1 sequence (Q9Y210 1-931): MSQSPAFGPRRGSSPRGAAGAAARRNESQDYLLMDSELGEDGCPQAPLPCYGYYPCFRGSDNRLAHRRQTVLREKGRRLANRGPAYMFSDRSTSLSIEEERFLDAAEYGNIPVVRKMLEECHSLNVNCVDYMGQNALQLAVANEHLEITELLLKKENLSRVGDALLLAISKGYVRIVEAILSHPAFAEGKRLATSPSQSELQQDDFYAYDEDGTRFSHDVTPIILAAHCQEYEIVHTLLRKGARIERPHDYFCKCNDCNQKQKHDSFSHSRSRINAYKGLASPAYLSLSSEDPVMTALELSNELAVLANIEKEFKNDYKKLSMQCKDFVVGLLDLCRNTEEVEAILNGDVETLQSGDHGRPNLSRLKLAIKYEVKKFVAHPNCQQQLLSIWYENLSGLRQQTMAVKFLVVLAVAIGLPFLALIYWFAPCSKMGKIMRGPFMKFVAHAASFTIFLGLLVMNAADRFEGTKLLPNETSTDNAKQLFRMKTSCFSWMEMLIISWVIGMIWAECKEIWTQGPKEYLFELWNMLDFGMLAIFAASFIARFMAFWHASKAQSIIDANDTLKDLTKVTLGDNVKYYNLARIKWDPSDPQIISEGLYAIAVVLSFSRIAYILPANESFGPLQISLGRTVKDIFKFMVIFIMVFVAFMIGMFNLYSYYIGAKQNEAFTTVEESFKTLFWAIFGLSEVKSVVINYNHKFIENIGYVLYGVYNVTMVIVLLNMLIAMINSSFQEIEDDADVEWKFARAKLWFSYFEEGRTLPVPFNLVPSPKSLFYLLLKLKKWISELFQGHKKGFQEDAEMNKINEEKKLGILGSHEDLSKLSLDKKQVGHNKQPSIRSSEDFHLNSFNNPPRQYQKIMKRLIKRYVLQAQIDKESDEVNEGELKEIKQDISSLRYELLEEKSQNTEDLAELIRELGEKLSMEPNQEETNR
The assay is described as follows: Evaluation of TRPC6 channel inhibitory activity (1), FLIPR Calcium 5 Assay Kit, OAG stimulation (Compound Nos. 1-1293). Format: cell-based. The settings on record: Human TRPC6 stably-expressing cells, OAG 30 μM, FLIPR Calcium 5 Assay Kit; read-out: Inhibitory activity (pIC50 class) (converted). The essentials: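 Calcium influx read by FLIPR fluorescence in cells stably expressing human TRPC6, dye-loaded 30 min. Compounds preincubated 20 min, then OAG stimulation at 30 μM final. Inhibition fitted by four-parameter logistic regression to give pIC50, reported as +/++/+++ categories.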
As for `N#Cc1ccc(-c2ccc(CCN)nc2)c(Oc2cnnc(Cl)c2)c1` [Compound 76, 4-[6-(2-aminoethyl)pyridin-3-yl]-3-(6-chloropyridazin-4-yl)oxybenzonitrile], the IC50 is over 1000 nM.

Take `Cc1nc(Oc2cc(C#N)ccc2-n2cc(C(O)CN)cn2)cc(-c2ccc(F)cc2)n1` (stereo not drawn) [Compound 140, 4-[4-(2-amino-1-hydroxyethyl)pyrazol-1-yl]-3-[6-(4-fluorophenyl)-2-methylpyrimidin-4-yl]oxybenzonitrile]: the IC50 is 10 to 1000 nM. As to `N#Cc1ccc(-c2ncc(CN)cn2)c(C(=O)c2nnc(N3CCOCC3)s2)c1` [compound 1095, 4-[5-(aminomethyl)pyrimidin-2-yl]-3-(5-morpholin-4-yl-1,3,4-thiadiazole-2-carbonyl)benzonitrile], the IC50 was over 1000 nM. The result for `Cn1nc(COC2CCCC2)cc1Oc1cc(C#N)ccc1-c1ccc(CCN)cn1` [Compound 245, 4-[5-(2-aminoethyl)pyridin-2-yl]-3-[5-(cyclopentyloxymethyl)-2-methylpyrazol-3-yl]oxybenzonitrile] reads 10 to 1000 nM. Regarding `Cc1cc(Oc2cc(C#N)ccc2-c2ccc(CN)nn2)cc(N2CCOCC2)n1` [compound 871, 4-[6-(aminomethyl)pyridazin-3-yl]-3-(2-methyl-6-morpholin-4-ylpyridin-4-yl)oxybenzonitrile], the IC50 is over 1000 nM.

Regarding `Cc1nc(Oc2cc(C#N)ccc2-c2ccc([C@H](O)CN)cn2)cc(-c2ccccc2)n1` [compound 525, 4-[5-[(1S)-2-amino-1-hydroxyethyl]pyridin-2-yl]-3-(2-methyl-6-phenylpyrimidin-4-yl)oxybenzonitrile], the IC50 is under 10 nM. Consider `Cc1nc(Oc2cc(C#N)ccc2-n2cc([C@@H](O)CN)cn2)cc(OC2CCCC2)n1` [Compound 265, 4-[4-[(1R)-2-amino-1-hydroxyethyl]pyrazol-1-yl]-3-(6-cyclopentyloxy-2-methylpyrimidin-4-yl)oxybenzonitrile], for which the IC50 is 10 to 1000 nM. Turning to `Cc1nc(Oc2cc(C#N)ccc2-c2ncc(CCN)cn2)cc(N2CC(F)C2)n1` [compound 858, 4-[5-(2-aminoethyl)pyrimidin-2-yl]-3-[6-(3-fluoroazetidin-1-yl)-2-methylpyrimidin-4-yl]oxybenzonitrile], the IC50 is 10 to 1000 nM. On to `Cc1nc(Oc2cc(C#N)ccc2-c2ncc(CCN)cn2)cc(N2CC(F)(F)C2)n1` [compound 296, 4-[5-(2-aminoethyl)pyrimidin-2-yl]-3-[6-(3,3-difluoroazetidin-1-yl)-2-methylpyrimidin-4-yl]oxybenzonitrile], for which the IC50 was under 10 nM. Regarding `N#Cc1ccc(-c2ncc(CN)cn2)c(Oc2cc(N3CCCCC3)nnc2Cl)c1` [compound 815, 4-[5-(aminomethyl)pyrimidin-2-yl]-3-(3-chloro-6-piperidin-1-ylpyridazin-4-yl)oxybenzonitrile], the IC50 was 10 to 1000 nM.

As to `Cc1cc(Oc2cc(C#N)ccc2-c2ccc(CC(C)(C)NCC(=O)N(C)C)cn2)cc(N2CCOCC2)n1` [compound 840, 2-[[1-[6-[4-cyano-2-(2-methyl-6-morpholin-4-ylpyridin-4-yl)oxyphenyl]pyridin-3-yl]-2-methylpropan-2-yl]amino]-N,N-dimethylacetamide], the IC50 was over 1000 nM. With `Cn1nc(-c2ccncn2)cc1Oc1cc(C#N)ccc1-c1ncc(CN)cn1` [compound 932, 4-[5-(aminomethyl)pyrimidin-2-yl]-3-(2-methyl-5-pyrimidin-4-ylpyrazol-3-yl)oxybenzonitrile], the IC50 was under 10 nM. Turning to `N#Cc1ccc(-c2ccc(CCN)cc2)c(C(O)c2cc(-c3ccccc3)no2)c1` (stereo not drawn) [compound 1229, 4-[4-(2-aminoethyl)phenyl]-3-[hydroxy-(3-phenyl-1,2-oxazol-5-yl)methyl]benzonitrile], the IC50 is 10 to 1000 nM.

On to `Cc1nc(OCCC(F)(F)F)cc(Oc2cc(C#N)ccc2-c2ccc(CCN)cc2)n1` [Compound 37, 4-[4-(2-aminoethyl)phenyl]-3-[2-methyl-6-(3,3,3-trifluoropropoxy)pyrimidin-4-yl]oxybenzonitrile], for which the IC50 is over 1000 nM.

With `NCCc1cnc(-c2ccc(Cl)cc2Oc2cnn(-c3ccccn3)c2)nc1` [compound 1024, 2-[2-[4-chloro-2-(1-pyridin-2-ylpyrazol-4-yl)oxyphenyl]pyrimidin-5-yl]ethanamine], the IC50 is 10 to 1000 nM.

On to `Cc1nc(N2CCOCC2)sc1C(=O)c1cc(C#N)ccc1-c1ccc(CN)cn1` [compound 1066, 4-[5-(aminomethyl)pyridin-2-yl]-3-(4-methyl-2-morpholin-4-yl-1,3-thiazole-5-carbonyl)benzonitrile], for which the IC50 is under 10 nM. For `COC(c1cc(C#N)ccc1-c1ncc(CCN)cn1)c1cc(C(C)(C)C)nn1C` (stereo not drawn) [compound 1236, 4-[5-(2-aminoethyl)pyrimidin-2-yl]-3-[(5-tert-butyl-2-methylpyrazol-3-yl)-methoxymethyl]benzonitrile], the IC50 was 10 to 1000 nM. The same measure for `Cc1cc(Oc2cc(C#N)ccc2-c2ccc(CCN)nc2)cc(N2CCOCC2)n1` [Compound 172, 4-[6-(2-aminoethyl)pyridin-3-yl]-3-(2-methyl-6-morpholin-4-ylpyridin-4-yl)oxybenzonitrile]: under 10 nM; for `Cc1nc(COC(C)C)cn1Cc1cc(C#N)ccc1-c1ccc(CCN)cc1` [compound 1126, 4-[4-(2-aminoethyl)phenyl]-3-[[2-methyl-4-(propan-2-yloxymethyl)imidazol-1-yl]methyl]benzonitrile]: over 1000 nM.

As for `N#Cc1ccc(-c2ncc(CN)cn2)c(Oc2cnnc(C3CC3)c2)c1` [compound 713, 4-[5-(aminomethyl)pyrimidin-2-yl]-3-(6-cyclopropylpyridazin-4-yl)oxybenzonitrile], the IC50 is 10 to 1000 nM. As for `N#Cc1ccc(-c2ccc(CCN)cn2)c(C(=O)c2nnc(N3CCOCC3)o2)c1` [compound 1091, 4-[5-(2-aminoethyl)pyridin-2-yl]-3-(5-morpholin-4-yl-1,3,4-oxadiazole-2-carbonyl)benzonitrile], the IC50 was 10 to 1000 nM. Turning to `Cn1nc(C2CC2)cc1Oc1cc(C#N)ccc1-c1cccc(CN)n1` [compound 480, 4-[6-(aminomethyl)pyridin-2-yl]-3-(5-cyclopropyl-2-methylpyrazol-3-yl)oxybenzonitrile], the IC50 is over 1000 nM.

As for `Cc1nn(-c2ccccn2)cc1Cc1cc(C#N)ccc1-c1ncc(CCN)cn1` [compound 1202, 4-[5-(2-aminoethyl)pyrimidin-2-yl]-3-[(3-methyl-1-pyridin-2-ylpyrazol-4-yl)methyl]benzonitrile], the IC50 was under 10 nM. In the case of `Cc1cc(Oc2cc(C#N)c(C)cc2-c2ncc(CN)cn2)cc(N2CCOCC2)n1` [compound 899, 4-[5-(aminomethyl)pyrimidin-2-yl]-2-methyl-5-(2-methyl-6-morpholin-4-ylpyridin-4-yl)oxybenzonitrile], the IC50 is 10 to 1000 nM. The same measure for `N#Cc1ccc(-c2ncc(CN)cn2)c(C(=O)c2cnn(-c3nccs3)c2)c1` [compound 1050, 4-[5-(aminomethyl)pyrimidin-2-yl]-3-[1-(1,3-thiazol-2-yl)pyrazole-4-carbonyl]benzonitrile]: 10 to 1000 nM; for `Cc1nc(Oc2cc(C#N)ccc2-c2ccc(CCN)cn2)cc(-c2ccccc2)n1` [Compound 86, 4-[5-(2-aminoethyl)pyridin-2-yl]-3-(2-methyl-6-phenylpyrimidin-4-yl)oxybenzonitrile]: 10 to 1000 nM.

On to `Cc1cc(Oc2cc(C#N)ccc2-c2ccc(OCCN)cn2)cc(N2CCOCC2)n1` [compound 350, 4-[5-(2-aminoethoxy)pyridin-2-yl]-3-(2-methyl-6-morpholin-4-ylpyridin-4-yl)oxybenzonitrile], for which the IC50 is 10 to 1000 nM. Regarding `NCCc1cnc(-c2ccc(F)cc2Cc2cnn(-c3ccccn3)c2)nc1` [compound 1220, 2-[2-[4-fluoro-2-[(1-pyridin-2-ylpyrazol-4-yl)methyl]phenyl]pyrimidin-5-yl]ethanamine], the IC50 was over 1000 nM. Take `CC(C)OCc1cc(Oc2cc(C#N)ccc2-c2ccc(CCN)cn2)n(C)n1` [Compound 255, 4-[5-(2-aminoethyl)pyridin-2-yl]-3-[2-methyl-5-(propan-2-yloxymethyl)pyrazol-3-yl]oxybenzonitrile]: the IC50 is 10 to 1000 nM. As for `Cc1nc(OCC2(C)COC2)cc(Oc2cc(C#N)ccc2-c2ncc(CN)cn2)n1` [compound 894, 4-[5-(aminomethyl)pyrimidin-2-yl]-3-[2-methyl-6-[(3-methyloxetan-3-yl)methoxy]pyrimidin-4-yl]oxybenzonitrile], the IC50 is over 1000 nM.
